Test results reported in US11306084B2, “Integrin antagonists” (Saint Louis University, priority 2016, dated 2022).
pIC50: −log10 of the molar value. Where a name gives a salt, the structure may show the parent alone.

Key:
[1] = target: T1, Recombinant human integrin ανβ5 (Homo sapiens, UniProt P06756+P18084); experiment: Solid Phase Receptor Assay (SPRA) for ανβ5 function; format: binding; conditions: plate-bound human vitronectin; read-out: αvβ5 SPRA IC50
T1 construct: purchased R&D Systems 2528-AV
T1 sequence (P06756 31-992 limits assumed): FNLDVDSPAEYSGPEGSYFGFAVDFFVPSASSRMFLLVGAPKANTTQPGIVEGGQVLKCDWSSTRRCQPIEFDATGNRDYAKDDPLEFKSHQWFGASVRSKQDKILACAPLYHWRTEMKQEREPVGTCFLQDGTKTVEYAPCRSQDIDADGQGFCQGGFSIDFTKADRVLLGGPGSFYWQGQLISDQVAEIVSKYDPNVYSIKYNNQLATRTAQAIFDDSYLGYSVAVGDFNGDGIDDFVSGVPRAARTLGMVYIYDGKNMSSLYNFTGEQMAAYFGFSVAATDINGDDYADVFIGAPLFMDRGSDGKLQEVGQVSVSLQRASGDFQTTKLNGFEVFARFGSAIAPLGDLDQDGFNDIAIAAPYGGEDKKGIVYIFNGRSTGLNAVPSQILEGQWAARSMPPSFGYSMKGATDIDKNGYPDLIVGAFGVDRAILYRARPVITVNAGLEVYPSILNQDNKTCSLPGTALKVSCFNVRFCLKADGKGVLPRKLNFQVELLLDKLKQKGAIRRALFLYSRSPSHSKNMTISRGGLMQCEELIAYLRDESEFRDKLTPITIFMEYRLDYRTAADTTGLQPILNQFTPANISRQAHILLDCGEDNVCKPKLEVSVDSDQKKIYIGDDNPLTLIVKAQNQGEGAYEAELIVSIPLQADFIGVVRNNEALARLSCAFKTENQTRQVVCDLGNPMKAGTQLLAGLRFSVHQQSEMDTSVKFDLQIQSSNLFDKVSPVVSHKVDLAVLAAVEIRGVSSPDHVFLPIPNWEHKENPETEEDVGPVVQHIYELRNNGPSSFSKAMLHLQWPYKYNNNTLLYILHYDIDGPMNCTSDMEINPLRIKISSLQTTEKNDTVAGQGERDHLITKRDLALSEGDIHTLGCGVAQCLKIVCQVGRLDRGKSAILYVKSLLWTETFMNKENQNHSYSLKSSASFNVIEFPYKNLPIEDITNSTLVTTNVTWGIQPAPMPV
T1 sequence (P18084 24-719 limits assumed): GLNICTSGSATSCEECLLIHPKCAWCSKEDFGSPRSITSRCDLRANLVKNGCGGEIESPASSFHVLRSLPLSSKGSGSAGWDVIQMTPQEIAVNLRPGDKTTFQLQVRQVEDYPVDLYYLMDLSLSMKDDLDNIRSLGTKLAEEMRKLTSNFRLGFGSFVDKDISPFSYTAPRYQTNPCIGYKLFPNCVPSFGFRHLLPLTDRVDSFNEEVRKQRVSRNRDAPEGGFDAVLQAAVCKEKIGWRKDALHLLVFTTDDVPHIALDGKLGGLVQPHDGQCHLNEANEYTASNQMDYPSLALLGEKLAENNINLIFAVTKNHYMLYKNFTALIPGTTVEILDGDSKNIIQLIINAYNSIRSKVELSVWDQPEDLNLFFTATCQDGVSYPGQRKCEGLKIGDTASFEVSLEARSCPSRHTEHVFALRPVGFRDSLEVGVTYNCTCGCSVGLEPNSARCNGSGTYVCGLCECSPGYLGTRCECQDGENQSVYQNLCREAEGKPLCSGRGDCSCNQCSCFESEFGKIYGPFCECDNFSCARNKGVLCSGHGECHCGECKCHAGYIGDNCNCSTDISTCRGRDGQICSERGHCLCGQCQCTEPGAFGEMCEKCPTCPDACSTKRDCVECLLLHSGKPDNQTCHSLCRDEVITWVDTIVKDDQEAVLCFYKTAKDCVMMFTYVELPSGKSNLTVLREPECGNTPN
Description: D. Solid Phase Receptor Assay (SPRA) for ανβ5 Function
Wells were washed 3 times with 150 μL TBS+ and then 150 μL of blocking buffer (TBS+ with 1% bovine serum albumin, Sigma A7906) was added. The plate was incubated for 1 hr at 37° C. and then washed 3× with TBS+ buffer. […] Compounds were diluted to 20 μM and then 1 μL was added to each well of the plate according to a standard template with each sample repeated in triplicate. After incubation for two hours at room temperature, the plate was washed 3× with 150 μL of TBS+ buffer. To each well, 50 μl of biotinylated anti-αν antibody (R&D Systems, BAF1219) at 0.5 μg/mL in TBS+/0.1% BSA at 0.5 μg/mL were added and the plate covered and incubated for 1 hr at room temperature. After washing the plate 3 with 150 μL of TBS+ buffer, 50 μL of streptavidin-conjugated horseradish peroxidase (R&D Systems, DY998) diluted in TBS+ blocking buffer were added to the wells and the plate incubated for 20 min at room temperature. The plate was washed 3× with TBS+ buffer followed by 50 μL of TMB substrate (Sigma T4444) added to each well in the dark and the plate incubated for 5 min at room temperature. 25 μL of 1.0 M phosphoric acid was added as a stop solution and the plates were read at 450 nm using a Spectramax plate reader.

[2] = target: T2, Recombinant human integrin ανβ1 (Homo sapiens, UniProt P05556+P06756); experiment: Solid Phase Receptor Assay (SPRA) for ανβ1 function; format: binding; conditions: plate-bound human fibronectin; read-out: αvβ1 SPRA IC50
T2 construct: purchased R&D Systems 6579-AV
T2 sequence (P06756 31-992 limits assumed): as the sequence (P06756 31-992 limits assumed) above
T2 sequence (P05556 21-728 limits assumed): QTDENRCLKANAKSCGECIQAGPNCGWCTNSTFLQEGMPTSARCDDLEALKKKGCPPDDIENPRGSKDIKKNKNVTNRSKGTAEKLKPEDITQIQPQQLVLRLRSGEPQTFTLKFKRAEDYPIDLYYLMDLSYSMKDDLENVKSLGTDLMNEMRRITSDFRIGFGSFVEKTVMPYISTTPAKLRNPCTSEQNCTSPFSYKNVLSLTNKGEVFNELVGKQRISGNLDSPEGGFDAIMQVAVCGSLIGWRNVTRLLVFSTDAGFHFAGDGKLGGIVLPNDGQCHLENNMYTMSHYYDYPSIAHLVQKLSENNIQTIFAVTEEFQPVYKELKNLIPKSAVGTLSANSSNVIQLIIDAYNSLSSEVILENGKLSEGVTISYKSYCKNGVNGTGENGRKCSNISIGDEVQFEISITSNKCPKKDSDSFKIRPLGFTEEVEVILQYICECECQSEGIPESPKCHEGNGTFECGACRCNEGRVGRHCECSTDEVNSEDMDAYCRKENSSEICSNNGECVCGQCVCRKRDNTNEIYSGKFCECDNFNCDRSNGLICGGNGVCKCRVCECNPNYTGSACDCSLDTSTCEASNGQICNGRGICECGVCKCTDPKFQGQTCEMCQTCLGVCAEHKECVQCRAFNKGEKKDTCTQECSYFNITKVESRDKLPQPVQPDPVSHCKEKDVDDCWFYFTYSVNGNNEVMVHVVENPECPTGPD
Description: B. Solid Phase Receptor Assay (SPRA) for ανβ1 Function
Wells were washed 3 times with 150 μL TBS+ and then 150 μL of blocking buffer (TBS+ with 1% bovine serum albumin, Sigma A7906) was added. The plate was incubated for 1 hr at 37° C. and then washed 3× with TBS+ buffer. […] Compounds were diluted to 20 μM and 1 μL was added to each well of the plate according to a standard template with each sample repeated in triplicate. After incubation for two hours at room temperature, the plate was washed 3 with 150 μL of TBS+ buffer. To each well, 50 μL of biotinylated anti-αν antibody (R&D Systems, BAF1219) at 1 μg/mL in TBS+/0.1% BSA were added and the plate covered and incubated for 1 hr at room temperature. After washing the plate 3× with 150 μL of TBS+ buffer, 50 μL of streptavidin-conjugated horseradish peroxidase (R&D Systems, DY998) diluted in TBS+ blocking buffer were added to the wells and the plate incubated for 20 min at room temperature. The plate was washed 3× with TBS+ buffer followed by 50 μL of TMB substrate (Sigma, T4444) added to each well in the dark and the plate incubated for 25 min at room temperature. 25 μL of 1.0 M phosphoric acid was added as a stop solution and the plates were read at 450 nm using a Spectramax plate reader.

In the case of COc1ccc(C(F)(F)F)cc1C(CC(=O)O)Cc1cc(OCCc2ccc3c(n2)NCCC3)n(C)n1 (centres unmarked) [Example 13, 3-(2-methoxy-5-(trifluoromethyl)phenyl)-4-(1-methyl-5-(2-(5,6,7,8-tetrahydro-1,8-naphthyridin-2-yl)ethoxy)-1H-pyrazol-3-yl)butanoic Acid Trifluoroacetate], the pIC50 [1] was 7.80 and the pIC50 [2] was 8.24.
With COc1ccc(Br)cc1C(CC(=O)O)Cc1cc(OCCc2ccc3c(n2)NCCC3)n(C)n1 (centres unmarked) [Example 14, 3-(5-bromo-2-methoxyphenyl)-4-(1-methyl-5-(2-(5,6,7,8-tetrahydro-1,8-naphthyridin-2-yl)ethoxy)-1H-pyrazol-3-yl)butanoic acid trifluoroacetate] the pIC50 [1] was 8.10 and the pIC50 [2] was 8.30.
For Cn1nc(CC(CC(=O)O)c2cc(C(C)(C)C)cc(C(F)(F)F)c2)cc1OCCc1ccc2c(n1)NCCC2 (centres unmarked) [Example 37, 3-[3-tert-butyl-5-(trifluoromethyl)phenyl]-4-[1-methyl-5-[2-(5,6,7,8-tetrahydro-1,8-naphthyridin-2-yl)ethoxyl]pyrazol-3-yl]butanoic Acid], the pIC50 [1] was 8.21 and the pIC50 [2] was 8.12.
Work on Cn1nc(CC(CC(=O)O)c2cc(C(F)(F)F)cc(C(C)(C)C(F)(F)F)c2)cc1OCCc1ccc2c(n1)NCCC2 (centres unmarked) [Example 25, 4-[1-methyl-5-[2-(5,6,7,8-tetrahydro-1,8-naphthyridin-2-yl)ethoxy]pyrazol-3-yl]-3-[3-(2,2,2-trifluoro-1,1-dimethylethyl)-5-(trifluoromethyl)phenyl]butanoic Acid] yielded a pIC50 [1] of 8.54 and a pIC50 [2] of 8.51.
Work on Cn1nc(CC(CC(=O)O)c2cc(Br)cc(C(C)(C)C(F)(F)F)c2)cc1OCCc1ccc2c(n1)NCCC2 (centres unmarked) [Example 26, 3-[3-bromo-5-(2,2,2-trifluoro-1,1-dimethyl-ethyl)phenyl]-4-[1-methyl-5-[2-(5,6,7,8-tetrahydro-1,8-naphthyridin-2-yl)ethoxy]pyrazol-3-yl]butanoic Acid] yielded a pIC50 [1] of 8.74 and a pIC50 [2] of 8.17.
For Cn1nc(CC(CC(=O)O)c2ccc3c(c2)OCCO3)cc1OCCc1ccc2c(n1)NCCC2 (centres unmarked) [Example 1, 3-(2,3-dihydrobenzo[b][1,4]dioxin-6-yl)-4-(1-methyl-5-(2-(5,6,7,8-tetrahydro-1,8-naphthyridin-2-yl)ethoxy)-1H-pyrazol-3-yl)butanoic Acid], the pIC50 [1] was 9.05 and the pIC50 [2] was 8.22.
Work on Cn1nc(CC(CC(=O)O)c2cc(F)cc(Cl)c2)cc1OCCc1ccc2c(n1)NCCC2 (centres unmarked) [Example 2, 3-(3-chloro-5-fluorophenyl)-4-(1-methyl-5-(2-(5,6,7,8-tetrahydro-1,8-naphthyridin-2-yl)ethoxy)-1H-pyrazol-3-yl)butanoic Acid] yielded a pIC50 [1] of 9.52 and a pIC50 [2] of 8.30.
With Cn1nc(CC(CC(=O)O)c2cc(C#N)cc(C3(C(F)F)CC3)c2)cc1OCCc1ccc2c(n1)NCCC2 (centres unmarked) [Example 20, 3-(3-cyano-5-(1-(difluoromethyl)cyclopropyl)phenyl)-4-(1-methyl-5-(2-(5,6,7,8-tetrahydro-1,8-naphthyridin-2-yl)ethoxy)-1H-pyrazol-3-yl)butanoic Acid] the pIC50 [1] was 9.70 and the pIC50 [2] was 8.41.
Cn1nc(CC(CC(=O)O)c2cc(C(C)(C)C)ccc2O)cc1OCCc1ccc2c(n1)NCCC2 (centres unmarked) [Example 42, 3-(5-tert-butyl-2-hydroxy-phenyl)-4-[1-methyl-5-[2-(5,6,7,8-tetrahydro-1,8-naphthyridin-2-yl)ethoxyl]pyrazol-3-yl]butanoic Acid Sodium Salt] was tested, and the pIC50 [1] was 8.18 and the pIC50 [2] was 8.62.
For COc1ccc(C#N)cc1C(CC(=O)O)Cc1cc(OCCc2ccc3c(n2)NCCC3)n(C)n1 (centres unmarked) [Example 46, 3-(5-cyano-2-methoxyphenyl)-4-(1-methyl-5-(2-(5,6,7,8-tetrahydro-1,8-naphthyridin-2-yl)ethoxy)-1H-pyrazol-3-yl)butanoic Acid Trifluoroacetate], the pIC50 [1] was 9.00 and the pIC50 [2] was 8.09.
Molecule Cn1nc(CC(CC(=O)O)c2cc(F)cc(C(C)(C)C)c2)cc1OCCc1ccc2c(n1)NCCC2 (centres unmarked) [Example 38, 3-(3-(tert-butyl)-5-fluorophenyl)-4-(1-methyl-5-(2-(5,6,7,8-tetrahydro-1,8-naphthyridin-2-yl)ethoxy)-1H-pyrazol-3-yl)butanoic Acid] has a pIC50 [1] of 9.52 and a pIC50 [2] of 8.35.
With COc1ccc(C(N)=O)cc1C(CC(=O)O)Cc1cc(OCCc2ccc3c(n2)NCCC3)n(C)n1 (centres unmarked) [Example 47, 3-(5-carbamoyl-2-methoxyphenyl)-4-(1-methyl-5-(2-(5,6,7,8-tetrahydro-1,8-naphthyridin-2-yl)ethoxy)-1H-pyrazol-3-yl)butanoic Acid trifluoroacetate] the pIC50 [1] was 9.52 and the pIC50 [2] was 8.31.
COc1ccc(C(CC(=O)O)Cc2cc(OCCc3ccc4c(n3)NCCC4)n(C)n2)cc1F (centres unmarked) [Example 3, 3-(3-fluoro-4-methoxyphenyl)-4-(1-methyl-5-(2-(5,6,7,8-tetrahydro-1,8-naphthyridin-2-yl)-ethoxy)-1H-pyrazol-3-yl)butanoic Acid] was tested, and the pIC50 [1] was 9.40 and the pIC50 [2] was 8.30.
With Cn1nc(CC(CC(=O)O)c2cc(Br)cc(C3(C(F)F)CC3)c2)cc1OCCc1ccc2c(n1)NCCC2 (centres unmarked) [Example 19, 3-(3-bromo-5-(1-(difluoromethyl)cyclopropyl)phenyl)-4-(1-methyl-5-(2-(5,6,7,8-tetrahydro-1,8-naphthyridin-2-yl)ethoxy)-1H-pyrazol-3-yl)butanoic Acid] the pIC50 [1] was 8.92 and the pIC50 [2] was 8.20.
With Cn1nc(CC(CC(=O)O)c2cc(C(C)(C)C)ccc2Cl)cc1OCCc1ccc2c(n1)NCCC2 (centres unmarked) [Example 43, 3-(5-(tert-butyl)-2-chlorophenyl)-4-(1-methyl-5-(2-(5,6,7,8-tetrahydro-1,8-naphthyridin-2-yl)ethoxy)-1H-pyrazol-3-yl)butanoic Acid Trifluoroacetate] the pIC50 [1] was 7.78 and the pIC50 [2] was 8.14.
Cn1nc(CC(CC(=O)O)c2cc(Br)cc(OC(F)(F)F)c2)cc1OCCc1ccc2c(n1)NCCC2 (centres unmarked) [Example 11, 3-(3-bromo-5-(trifluoromethoxy)phenyl)-4-(1-methyl-5-(2-(5,6,7,8-tetrahydro-1,8-naphthyridin-2-yl)ethoxy)-1H-pyrazol-3-yl)butanoic Acid] showed a pIC50 [1] of 9.10 and a pIC50 [2] of 7.96.
COCC1(c2cc(Cl)cc(C(CC(=O)O)Cc3cc(OCCc4ccc5c(n4)NCCC5)n(C)n3)c2)CCOCC1 (centres unmarked) [Example 29, 3-(3-chloro-5-(4-(methoxymethyl)tetrahydro-2H-pyran-4-yl)phenyl)-4-(1-methyl-5-(2-(5,6,7,8-tetrahydro-1,8-naphthyridin-2-yl)ethoxy)-1H-pyrazol-3-yl)butanoic Acid] was tested, and the pIC50 [1] was 9.30 and the pIC50 [2] was 8.03.
In the case of Cn1nc(CC(CC(=O)O)c2cccc(Br)c2)cc1OCCc1ccc2c(n1)NCCC2 (centres unmarked) [Example 6, 3-(3-bromophenyl)-4-(1-methyl-5-(2-(5,6,7,8-tetrahydro-1,8-naphthyridin-2-yl)ethoxy)-1H-pyrazol-3-yl)butanoic Acid], the pIC50 [1] was 9.40 and the pIC50 [2] was 8.00.
Work on Cn1nc(CC(CC(=O)O)c2cc(Br)cc(C(C)(C)C)c2)cc1OCCc1ccc2c(n1)NCCC2 (centres unmarked) [Example 16, 3-(3-bromo-5-tert-butyl-phenyl)-4-(1-methyl-5-(2-(5,6,7,8-tetrahydro-1,8-naphthyridin-2-yl)ethoxy)-1H-pyrazol-3-yl)butanoic Acid] yielded a pIC50 [1] of 8.51 and a pIC50 [2] of 8.52.
Cn1nc(CC(CC(=O)O)c2cc(C#N)cc(C(C)(C)C)c2)cc1OCCc1ccc2c(n1)NCCC2 (centres unmarked) [Example 17] showed a pIC50 [1] of 9.40 and a pIC50 [2] of 8.36.
Cn1nc(CC(CC(=O)O)c2cc(C#N)cc(C(C)(C)C(F)(F)F)c2)cc1OCCc1ccc2c(n1)NCCC2 (centres unmarked) [Example 28, 3-[3-cyano-5-(2,2,2-trifluoro-1,1-dimethyl-ethyl)phenyl]-4-[1-methyl-5-[2-(5,6,7,8-tetrahydro-1,8-naphthyridin-2-yl)ethoxyl]pyrazol-3-yl]butanoic Acid Trifluoroacetate] gave a pIC50 [1] of 9.10 and a pIC50 [2] of 8.41.
Molecule CC(C)(C)c1cc(Br)cc(C(CC(=O)O)Cc2cc(OCCc3ccc4c(n3)NCCC4)n(CC(F)(F)F)n2)c1 (centres unmarked) [Example 41, 3-(3-bromo-5-tert-butyl-phenyl)-4-[5-[2-(5,6,7,8-tetrahydro-1,8-naphthyridin-2-yl)ethoxy]-1-(2,2,2-trifluoroethyl)pyrazol-3-yl]butanoic Acid Trifluoroacetate] has a pIC50 [1] of 8.66 and a pIC50 [2] of 8.35.
